Converted amounts (≈) assume the structure as drawn. Where two headings read alike, the source gives them in different places.
Assays:
[1] = Residual antibacterial activity after incubation with 10% liver homogenate (Table 4); format: in vitro ADME, male Sprague-Dowley rat; details: 10% rat liver homogenate; for remaining at 0.25 h / remaining at 0.5 h / remaining at 1.5 h: 10% liver homogenate, read-out: Residual activity; for remaining at 0.25 h: 15 minute; for remaining at 0.5 h: 30 minute; for remaining at 1.5 h: 90 minute; for Residual activity: 0 minute
Experimental: (§1) The relation between the reaction period of time and the antibacterial activity (residual activity, %) when these compounds are incubated with the plasma and the liver homogenate of a male Sprague-Dowley rat is shown in Table 4. The residual antibacterial activity was measured by a thin-layer cup method according to Bacillus subtilis ATCC 6633.
B*Residual activity (%) when incubated with 10% liver homogenate.

[2] = Residual antibacterial activity after incubation with 90% plasma (Table 4); format: in vitro ADME, male Sprague-Dowley rat; details: 90% rat plasma; for remaining at 0.25 h / remaining at 0.5 h / remaining at 1.5 h: 90% plasma; for remaining at 0.25 h: 15 minute; for remaining at 0.5 h: 30 minute; for remaining at 1.5 h: 90 minute; for Residual activity: 0 minute
Experimental: as §1
A*Residual activity (%) when incubated with 90% plasma.

[3] = test system: Bacillus megatherium 10778; experiment: MIC against bacteria (Table I), strain (13); format: cell-based
Text: (§2) Now, for illustrating the excellent pharmacological effects of the compounds of this invention, the values of MIC (γ/ml.) of the compounds against various bacteria are shown in Table 1, in which the compounds of this invention used are shown by example numbers.

[4] = test system: Shigella flexneri 2a 1675; experiment: MIC against bacteria (Table I), strain (11); format: cell-based; details: 2A1675
Text: as §2

[5] = test system: Klebsiella pneumoniae ATCC 10031; experiment: MIC against bacteria (Table I), strain (8); format: cell-based; details: ATCC10031
Text: as §2
(8) Klebsiella pneumoniae ATCC 10031

[6] = test system: Staphylococcus Shimanishi; experiment: MIC against bacteria (Table I), strain (17); format: cell-based
Text: as §2
(17) Staphylococcus Shimanishi

[7] = test system: Staphylococcus Onuma; experiment: MIC against bacteria (Table I), strain (18); format: cell-based
Text: as §2
(18) Staphylococcus Onuma

[8] = test system: Salmonella typhi H901 W; experiment: MIC against bacteria (Table I), strain (9); format: cell-based; details: Salmonella enterica, TYPHI
Text: as §2
(9) Salmonella typhi H901 W

[9] = test system: Proteus vulgaris OXK US; experiment: MIC against bacteria (Table I), strain (1); format: cell-based
Text: as §2
(1) Proteus vulgaris OXK US

[10] = test system: β-lactamase isolated from Pseudomonas aeruginosa 21; experiment: Resistance to β-lactamase: amount of unaltered test sample (Table 3); format: biochemical; details: initial concentration 100γ/ml
Text: For example, the relation between the amount (γ/ml) of an unaltered test sample at an initial concentration of the sample 100γ/ml against β-lactamase isolated from Pseudomonas aeruginosa 21 at various dilutions of the enzyme were investigated.

[11] = test system: Micrococcus flavus ATCC 10240; experiment: MIC against bacteria (Table I), strain (15); format: cell-based; details: ATCC10240
Text: as §2
(15) Micrococcus flavus ATCC 10240

[12] = test system: Pseudomonas aeruginosa ATCC 8689; experiment: MIC against bacteria (Table I), strain (4); format: cell-based; details: ATCC8689; (4) Pseudomonas aeruginosa ATCC 8689; read-out: MIC
Text: as §2
(4) Pseudomonas aeruginosa ATCC 8689

[13] = test system: Proteus vulgaris 0X 19US; experiment: MIC against bacteria (Table I), strain (2); format: cell-based; details: 0X19US
Text: as §2
(2) Proteus vulgaris 0X 19US

[14] = test system: Salmonella enteritidis; experiment: MIC against bacteria (Table I), strain (10); format: cell-based; details: Salmonella enterica
Text: as §2
(10) Salmonella enteritidis

[15] = test system: Proteus mirabilis IXM OM-19; experiment: MIC against bacteria (Table I), strain (3); format: cell-based; details: IXMOM19
Text: as §2
(3) Proteus mirabilis IXM OM-19

[16] = test system: Staphylococcus aureus 209P; experiment: MIC against bacteria (Table I), strain (16); format: cell-based
Text: as §2
(16) Staphylococcus aureus 209P

[17] = test system: Escherichia coli kauffmann 0-1; experiment: MIC against bacteria (Table I), strain (7); format: cell-based; details: Escherichia coli
Text: as §2
(7) Escherichia coli kauffmann 0-1

[18] = test system: Pseudomonas aeruginosa 99 (Gentamycin resistant); experiment: MIC against bacteria (Table I), strain (5); format: cell-based; details: (5) Pseudomonas aeruginosa 99 (Gentamycin resistant); read-out: MIC
Text: as §2
(5) Pseudomonas aeruginosa 99 (Gentamycin resistant)

[19] = test system: Bacillus subtilis ATCC 6633; experiment: MIC against bacteria (Table I), strain (14); format: cell-based; details: ATCC6633
Text: as §2
(14) Bacillus subtilis ATCC 6633

[20] = test system: Psuedomonas ovalis IMA 1002; experiment: MIC against bacteria (Table I), strain (6); format: cell-based; details: (6) Psuedomonas ovalis IMA 1002; read-out: MIC
Text: as §2
(6) Psuedomonas ovalis IMA 1002

[21] = test system: Shigella sonnei II 37148; experiment: MIC against bacteria (Table I), strain (12); format: cell-based; details: II37148
Text: as §2

[22] = (13) Bacillus megatherium 10778, read-out: MIC
[23] = (11) Shigella flexneri 2a 1675, read-out: MIC
[24] = (17) Staphylococcus Shimanishi, read-out: MIC
[25] = (15) Micrococcus flavus ATCC 10240, read-out: MIC
[26] = (2) Proteus vulgaris 0X 19US, read-out: MIC
[27] = (3) Proteus mirabilis IXM OM-19, read-out: MIC
[28] = (16) Staphylococcus aureus 209P, read-out: MIC
[29] = (14) Bacillus subtilis ATCC 6633, read-out: MIC
[30] = (12) Shigella sonnei II 37148, read-out: MIC
[31] = (8) Klebsiella pneumoniae ATCC 10031, read-out: MIC
[32] = (1) Proteus vulgaris OXK US, read-out: MIC
[33] = (18) Staphylococcus Onuma, read-out: MIC

O=C(Cc1cccs1)N[C@@H]1C(=O)N2C(C(=O)[O-])=C(C[n+]3ccccc3)CS[C@H]12 [Cephaloridine, reference compound]
remaining at 0.25 h [1]: 82.3% | remaining at 0.5 h [1]: 86% | remaining at 1.5 h [1]: 91.1% | Residual activity [1]: 100% | remaining at 0.25 h [2]: 97.2% | remaining at 0.5 h [2]: 89.5% | remaining at 1.5 h [2]: 72.2% | Residual activity [2]: 100%

Cc1nnc(SCC2=C(C(=O)O)N3C(=O)[C@@H](NC(=O)Cn4cnnn4)[C@H]3SC2)s1 [Cephazolin, reference compound]
MIC [3, 22]: 0.19 µg/mL (≈ 0.418 µM) | MIC [4, 23]: 1.56 µg/mL (≈ 3.43 µM) | MIC ([5]; Klebsiella pneumoniae): 1.56 µg/mL (≈ 3.43 µM) | MIC [6, 24]: 0.78 µg/mL (≈ 1.72 µM) | MIC ([7]; Staphylococcus): 1.56 µg/mL (≈ 3.43 µM) | MIC [8]: 1.56 µg/mL (≈ 3.43 µM) | MIC ([9]; Proteus vulgaris): 3.13 µg/mL (≈ 6.89 µM) | Amount of unaltered test sample ([10]; β-lactamase dilution ×2): 0 µg/mL | Amount of unaltered test sample ([10]; β-lactamase dilution ×4): 0 µg/mL | Amount of unaltered test sample ([10]; β-lactamase dilution ×8): 0 µg/mL | Amount of unaltered test sample ([10]; β-lactamase dilution ×16): 0 µg/mL | Amount of unaltered test sample ([10]; β-lactamase dilution ×32): 0 µg/mL | Amount of unaltered test sample ([10]; β-lactamase dilution ×64): 9.2 µg/mL | Amount of unaltered test sample ([10]; β-lactamase dilution ×128): 21.5 µg/mL | Amount of unaltered test sample ([10]; β-lactamase dilution ×256): 84.6 µg/mL | Amount of unaltered test sample ([10]; β-lactamase dilution ×512): 96.7 µg/mL | Amount of unaltered test sample ([10]; β-lactamase dilution ×1024): 100 µg/mL | MIC [11, 25]: 0.19 µg/mL (≈ 0.418 µM) | MIC [12]: > 100 µg/mL | MIC [13, 26]: 25 µg/mL (≈ 55 µM) | MIC ([14]; ENTERITIDIS): 1.56 µg/mL (≈ 3.43 µM) | MIC [15, 27]: 6.25 µg/mL (≈ 13.8 µM) | MIC [16, 28]: 0.19 µg/mL (≈ 0.418 µM) | MIC [17]: 1.56 µg/mL (≈ 3.43 µM) | MIC [18]: > 100 µg/mL | MIC [19, 29]: 0.19 µg/mL (≈ 0.418 µM) | MIC [20]: > 100 µg/mL | MIC [21, 30]: 1.56 µg/mL (≈ 3.43 µM)

O=C(O)C1=C(CSc2nnc(SCCS(=O)(=O)O)s2)CS[C@@H]2[C@H](NC(=O)[C@H](NC(=O)c3cnccc3O)c3ccccc3)C(=O)N12 [Example 9, 7-[D-α-(4-hydroxynicotinoylamido)-α-phenylacetamido]-3-(5-sulfoethylthio-1,3,4-thiadiazol-2-yl)thiomethyl-Δ^3-cephem-4-carboxylic acid]
MIC [3, 22]: 0.39 µg/mL (≈ 0.538 µM) | MIC [4, 23]: 1.56 µg/mL (≈ 2.15 µM) | MIC [5, 31]: 3.13 µg/mL (≈ 4.32 µM) | MIC [6, 24]: 3.13 µg/mL (≈ 4.32 µM) | MIC ([7]; Staphylococcus): 6.25 µg/mL (≈ 8.62 µM) | MIC [8]: 1.56 µg/mL (≈ 2.15 µM) | MIC [9, 32]: 0.19 µg/mL (≈ 0.262 µM) | remaining at 0.25 h [1]: 100% | remaining at 0.5 h [1]: 100% | remaining at 1.5 h [1]: 102% | Residual activity [1]: 100% | MIC [11, 25]: 3.13 µg/mL (≈ 4.32 µM) | MIC [12]: 12.5 µg/mL (≈ 17.2 µM) | MIC [13, 26]: 0.39 µg/mL (≈ 0.538 µM) | MIC ([14]; ENTERITIDIS): 0.39 µg/mL (≈ 0.538 µM) | MIC [15, 27]: 0.39 µg/mL (≈ 0.538 µM) | MIC [16, 28]: 0.78 µg/mL (≈ 1.08 µM) | MIC [17]: 3.13 µg/mL (≈ 4.32 µM) | MIC [18]: 12.5 µg/mL (≈ 17.2 µM) | remaining at 0.25 h [2]: 103% | remaining at 0.5 h [2]: 92% | remaining at 1.5 h [2]: 100% | Residual activity [2]: 100% | MIC [19, 29]: 0.39 µg/mL (≈ 0.538 µM) | MIC [20]: 12.5 µg/mL (≈ 17.2 µM) | MIC [21, 30]: 6.25 µg/mL (≈ 8.62 µM)

O=C(O)Cc1nnc(SCC2=C(C(=O)O)N3C(=O)[C@@H](NC(=O)[C@H](NC(=O)c4csccc4=O)c4ccc(O)cc4)[C@H]3SC2)s1 [Example 32, 7-[D-α-(4-thiopyrone-3-carboxamido)-α-p-hydroxyphenylacetamido]-3-[5-carboxymethyl-1,3,4-thiadiazol-2-yl]thiomethyl-Δ^3-cephem-4-carboxylic acid]
MIC ([3]; Bacillus, 10778): 0.78 µg/mL (≈ 1.15 µM) | MIC [4, 23]: 0.78 µg/mL (≈ 1.15 µM) | MIC [5, 31]: 6.25 µg/mL (≈ 9.25 µM) | MIC ([6]; Staphylococcus): 3.13 µg/mL (≈ 4.63 µM) | MIC [7, 33]: 6.25 µg/mL (≈ 9.25 µM) | MIC [8]: 1.56 µg/mL (≈ 2.31 µM) | MIC [9, 32]: < 0.09 µg/mL | MIC ([11]; Micrococcus flavus): 3.13 µg/mL (≈ 4.63 µM) | MIC [12]: 50 µg/mL (≈ 74 µM) | MIC ([13]; Proteus vulgaris): 3.13 µg/mL (≈ 4.63 µM) | MIC ([14]; ENTERITIDIS): 1.56 µg/mL (≈ 2.31 µM) | MIC ([15]; Proteus mirabilis): 0.78 µg/mL (≈ 1.15 µM) | MIC ([16]; Staphylococcus aureus, 209P): 1.56 µg/mL (≈ 2.31 µM) | MIC [17]: 3.13 µg/mL (≈ 4.63 µM) | MIC [18]: 25 µg/mL (≈ 37 µM) | MIC ([19]; Bacillus subtilis): 0.78 µg/mL (≈ 1.15 µM) | MIC [20]: 50 µg/mL (≈ 74 µM) | MIC [21, 30]: 3.13 µg/mL (≈ 4.63 µM)

O=C(O)CSc1nnc(SCC2=C(C(=O)O)N3C(=O)[C@@H](NC(=O)[C@H](NC(=O)c4cnccc4O)c4ccc(O)cc4)[C@H]3SC2)s1 [Example 33, 7-[D-α-(4-hydroxynicotinoylamido)-α-p-hydroxyphenylacetamido]-3-[5-carboxymethylthio-1,3,4-Δ^3-thiadiazol-2-yl]thiomethyl-cephem-4-carboxylic acid]
MIC [3, 22]: 0.78 µg/mL (≈ 1.13 µM) | MIC ([4]; Shigella flexneri): 3.13 µg/mL (≈ 4.53 µM) | MIC [5, 31]: 25 µg/mL (≈ 36.2 µM) | MIC [6, 24]: 12.5 µg/mL (≈ 18.1 µM) | MIC [7, 33]: 25 µg/mL (≈ 36.2 µM) | MIC [8]: 3.13 µg/mL (≈ 4.53 µM) | MIC [9, 32]: < 0.09 µg/mL | MIC ([11]; Micrococcus flavus): 3.13 µg/mL (≈ 4.53 µM) | MIC [12]: 25 µg/mL (≈ 36.2 µM) | MIC ([13]; Proteus vulgaris): 12.5 µg/mL (≈ 18.1 µM) | MIC ([14]; (10) Salmonella enteritidis, read-out: MIC): 1.56 µg/mL (≈ 2.26 µM) | MIC [15, 27]: 0.39 µg/mL (≈ 0.565 µM) | MIC ([16]; Staphylococcus aureus, 209P): 3.13 µg/mL (≈ 4.53 µM) | MIC [17]: 3.13 µg/mL (≈ 4.53 µM) | MIC [18]: 25 µg/mL (≈ 36.2 µM) | MIC [19, 29]: 0.78 µg/mL (≈ 1.13 µM) | MIC [20]: 12.5 µg/mL (≈ 18.1 µM) | MIC ([21]; Shigella sonnei): 3.13 µg/mL (≈ 4.53 µM)
